Tests used:
[1] = system: Chenopodium spp., Papaver spp., Polygonum spp., Veronica spp. or Viola spp.; test: Post-emergence effect on weeds (greenhouse pot test, visual scoring); assay type: in vivo, monocotyledonous and dicotyledonous weeds; conditions: treated at three-leaf stage; visual scoring after about 3 to 4 weeks; application rate of 0.5 kg and less of active substance per hectare
[2] = system: Cyperus spp., Echinochloa spp., Digitaria spp., Sagitaria spp. and Scirpus spp.; test: Action on harmful plants in rice (paddy rice conditions, visual scoring); assay type: in vivo, typical rice weeds (gramineous and broad-leaved); conditions: applied into the dammed water, visual scoring about three weeks after application
How it was run: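 Under paddy conditions with 2-3 cm dammed water, transplanted and sown rice plus weeds were treated at three-leaf stage (E. crus-galli at 1.5 leaves). Pots stayed in greenhouse under optimum growth conditions for the test period, with visual assessment of damage.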

| Compound | herbicidal activity post-emergence against harmful plants [1] | herbicidal activity against harmful plants which are typical for rice crops [2] |
| --- | --- | --- |
| C#Cc1ccc(CNc2nc(N)nc(CC)n2)cc1 [Product P6.1580] | very good herbicidal activity | very good herbicidal activity |
| CC#Cc1c(F)cc(CNc2nc(N)nc(CC)n2)cc1F [Product P6.428] | very good herbicidal activity | very good herbicidal activity |
| CCC(F)c1nc(N)nc(NC(C)c2ccc(F)c(C#CC(C)O)c2)n1 (centres unmarked) [Product P27.840] | very good herbicidal activity | very good herbicidal activity |
| C#Cc1c(F)cc(CNc2nc(C)nc(N)n2)cc1F [Product P1.352] | very good herbicidal activity | very good herbicidal activity |
| CCC(F)c1nc(N)nc(NC(C)c2ccc(F)c(C(F)=C(F)F)c2)n1 (centres unmarked) [Product P27.5] | very good herbicidal activity | very good herbicidal activity |
| C#Cc1cc(CNc2nc(N)nc(C(F)CC)n2)ccc1F (centres unmarked) [Product P26.309] | very good herbicidal activity | very good herbicidal activity |
| CCc1nc(N)nc(NCc2ccc(C(F)=C(F)F)cc2)n1 [Product P6.1568] | very good herbicidal activity | very good herbicidal activity |
| CC(C)(F)c1nc(N)nc(NCc2cc(F)c(C(F)=C(F)F)c(F)c2)n1 [Product P16.49] | very good herbicidal activity | very good herbicidal activity |
| CC#Cc1cc(C(C)Nc2nc(N)nc(C(C)(C)F)n2)ccc1F (centres unmarked) [Product P17.384] | very good herbicidal activity | very good herbicidal activity |
| C#Cc1ccc(C(C)Nc2nc(C)nc(N)n2)cc1 (centres unmarked) [Product P2.1580] | very good herbicidal activity | very good herbicidal activity |
| C=C=Cc1c(F)cc(C(C)Nc2nc(N)nc(C(C)F)n2)cc1F (centres unmarked) [Product P22.656] | very good herbicidal activity | very good herbicidal activity |
| C#Cc1c(C)cc(C(C)Nc2nc(N)nc(C(C)(C)F)n2)cc1C (centres unmarked) [Product P17.348] | very good herbicidal activity | very good herbicidal activity |
| C#Cc1ccc(C(Nc2nc(N)nc(C(F)CC)n2)C2CC2)cc1 (centres unmarked) [Product P29.1580] | very good herbicidal activity | very good herbicidal activity |
| CC#Cc1cc(C(Nc2nc(N)nc(C(F)CC)n2)C2CC2)ccc1F (centres unmarked) [Product P29.384] | very good herbicidal activity | very good herbicidal activity |
| C#Cc1cccc(CNc2nc(C)nc(N)n2)c1 [Product P1.1579] | very good herbicidal activity | very good herbicidal activity |
| CC#Cc1c(F)cc(C(C)Nc2nc(N)nc(C(C)F)n2)cc1F (centres unmarked) [Product P22.428] | very good herbicidal activity | very good herbicidal activity |

| Compound | herbicidal activity post-emergence against harmful plants [1] | herbicidal activity against harmful plants which are typical for rice crops [2] |
| --- | --- | --- |
| Cc1nc(N)nc(NC(C)c2ccc(C(F)=C(F)F)cc2)n1 (centres unmarked) [Product P2.1568] | very good herbicidal activity | very good herbicidal activity |
| CCC(F)c1nc(N)nc(NC(c2cccc(C(F)=C(F)F)c2)C2CC2)n1 (centres unmarked) [Product P29.1567] | very good herbicidal activity | very good herbicidal activity |
| CC#Cc1cccc(C(C)Nc2nc(N)nc(C(F)CC)n2)c1 (centres unmarked) [Product P27.1582] | very good herbicidal activity | very good herbicidal activity |
| CC(C)c1nc(N)nc(NC(c2cccc(C(F)=C(F)F)c2)C2CC2)n1 (centres unmarked) [Product P14.1567] | very good herbicidal activity | very good herbicidal activity |
| C#Cc1c(C)cc(C(C)Nc2nc(N)nc(C(C)F)n2)cc1C (centres unmarked) [Product P22.348] | very good herbicidal activity | very good herbicidal activity |
| CCC(F)c1nc(N)nc(NC(C)c2cccc(C3CC3)c2)n1 (centres unmarked) [Product P27.1603] | very good herbicidal activity | very good herbicidal activity |
| CCC(F)c1nc(N)nc(NC(c2ccc(C(F)=C(F)F)cc2)C2CC2)n1 (centres unmarked) [Product P29.1568] | very good herbicidal activity | very good herbicidal activity |
| C#Cc1cccc(C(Nc2nc(N)nc(CC)n2)C2CC2)c1 (centres unmarked) [Product P9.1579] | very good herbicidal activity | very good herbicidal activity |
| CCC(F)c1nc(N)nc(NC(C)c2cc(F)c(C3CC3)c(F)c2)n1 (centres unmarked) [Product P27.960] | very good herbicidal activity | very good herbicidal activity |
| C#Cc1cccc(CNc2nc(N)nc(C(C)C)n2)c1 [Product P11.1579] | very good herbicidal activity | very good herbicidal activity |
| CC#Cc1cc(CNc2nc(C)nc(N)n2)ccc1F [Product P1.384] | very good herbicidal activity | very good herbicidal activity |
| CC(C)(F)c1nc(N)nc(NCc2ccc(F)c(C(F)=C(F)F)c2)n1 [Product P16.5] | very good herbicidal activity | very good herbicidal activity |
| CC(F)C#Cc1cc(C(C)Nc2nc(N)nc(C(C)F)n2)ccc1F (centres unmarked) [Product P22.764] | very good herbicidal activity | very good herbicidal activity |
| CCc1nc(N)nc(NC(C)c2cccc(C3CC3)c2)n1 (centres unmarked) [Product P7.1603] | very good herbicidal activity | very good herbicidal activity |
| CC(F)c1nc(N)nc(NCc2ccc(F)c(C(F)=C(F)F)c2)n1 (centres unmarked) [Product P21.5] | very good herbicidal activity | very good herbicidal activity |

Source: patent publication US20030224942A1, “Alkylamino-1,3,5-triazines, processes for their preparation and their use as herbicides and plant growth regulators” (priority 2001, published 2003)
